Laboratory results from patent US5700804A, “Pharmaceutical compounds” (Xenova Limited, priority 1992, dated 1997).
Counter-ions that a name gives are not always drawn.

Target: PAI-1 (Homo sapiens, UniProt P05121)
Experiment: PAI chromogenic substrate assay (first S2251 assay, tPA/plasminogen system)
Assay type: biochemical
Protocol: In this assay, a compound is incubated with PAI-1 prior to addition to the tPA assay system. Inhibition of PAI-1 results in the production of plasmin from plasminogen. In turn, plasmin cleaves the chromogenic substrate S2251 (Kabi Vitrum) producing pNA (p-nitroaniline) which is detected spectrophotometrically at 405 nm (K. Nilsson et al, Fibrinolysis (1987) 1, 163-168).
Compounds of formula (A) were tested in a PAI chromogenic substrate assay. In the first assay (K. Nilsson, Fibrinolysis (1987) 1, 163-168) each compound was incubated with PAI-1 prior to addition to the tPA assay system. […] In turn, the plasmin cleaved the chromogenic substrate S2251 (Kabi-Vitrum) producing pNA (p-nitroaniline) which was detected spectrophotometrically at 405 nm.

Chain of PAI-1 (P05121 24-402): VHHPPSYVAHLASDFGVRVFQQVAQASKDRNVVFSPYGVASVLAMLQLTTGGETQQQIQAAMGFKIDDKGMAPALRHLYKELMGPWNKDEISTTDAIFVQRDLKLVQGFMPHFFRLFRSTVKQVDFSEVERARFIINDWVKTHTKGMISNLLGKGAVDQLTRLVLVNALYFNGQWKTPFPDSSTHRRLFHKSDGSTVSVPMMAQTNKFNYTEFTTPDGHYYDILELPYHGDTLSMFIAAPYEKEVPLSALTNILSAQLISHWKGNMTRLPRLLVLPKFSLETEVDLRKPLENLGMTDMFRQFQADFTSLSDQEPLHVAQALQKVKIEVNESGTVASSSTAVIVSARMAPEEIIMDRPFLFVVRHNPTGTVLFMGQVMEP

Row | SMILES | Inhibition of PAI-1 in the first S2251 chromogenic substrate assay (Concentration 12.5 μm) [%] | Inhibition of PAI-1 in the first S2251 chromogenic substrate assay (Concentration 25 μm) [%] | Inhibition of PAI-1 in the first S2251 chromogenic substrate assay (Concentration 50 μm) [%] | Inhibition of PAI-1 in the first S2251 chromogenic substrate assay (Concentration 100 μm) [%] | Inhibition of PAI-1 in the first S2251 chromogenic substrate assay (Concentration 6.25 μm) [%] | further results
1 | CC(=O)SCc1cccc(/C=c2\[nH]c(=O)/c(=C/c3ccccc3)[nH]c2=O)c1 [Compound 61, (3Z,6Z)-6-Benzylidene-3-(3-thioacetoxymethylbenzylidene)-2,5-piperazinedione] | 26 | 69 | 88 | 83 |  | 
2 | CC(=O)Nc1ccc(/C=c2\[nH]c(=O)/c(=C/c3c(Cl)cccc3Cl)[nH]c2=O)cc1 [Compound 40, (3Z,6Z)-3-(4-Acetamidobenzylidene)-6-(2,6-dichlorobenzylidene)-2,5-piperazinedione] | 4 | 23 | 61 | 61 | 1 | 
3 | CN(C)CCOc1ccc(/C=c2\[nH]c(=O)/c(=C/c3ccccc3)[nH]c2=O)cc1 [Compound 99, (3Z,6Z)-6-Benzylidene-3-(4-(2-N,N-dimethylaminoethoxy)benzylidene)-2,5-piperazinedione, hydrochloride] |  |  |  |  |  | Inhibition of PAI-1 in the first S2251 chromogenic substrate assay (Concentration 2.5 μm): 0%; Inhibition of PAI-1 in the first S2251 chromogenic substrate assay (Concentration 5 μm): 0%; Inhibition of PAI-1 in the first S2251 chromogenic substrate assay (Concentration 10 μm): 17%; Inhibition of PAI-1 in the first S2251 chromogenic substrate assay (Concentration 20 μm): 48%; Inhibition of PAI-1 in the first S2251 chromogenic substrate assay (Concentration 40 μm): 68%
4 | CC(=O)OCc1ccc(/C=c2\[nH]c(=O)/c(=C/c3ccccc3)[nH]c2=O)cc1 [Compound 43, (3Z,6Z)-3-(4-Acetoxymethylbenzylidene)-6-benzylidene-2,5-piperazinedione] | 1 | 3 | 45 | 59 | 1 | 
5 | COc1ccc(/C=c2\[nH]c(=O)/c(=C/c3ccc(NC(C)=O)cc3)[nH]c2=O)cc1OC [Compound 92] | 12 | 38 | 44 | 86 | 17 | 
6 | CC(C)(C)OC(=O)NCc1ccc(/C=c2\[nH]c(=O)/c(=C/c3ccccc3)[nH]c2=O)cc1 [Compound 66] | 2 | 46 | 70 | 85 |  | 
7 | CC(=O)Nc1ccc(/C=c2\[nH]c(=O)/c(=C/c3ccccc3F)[nH]c2=O)cc1 [Compound 71, (3Z,6Z)-3-(4-Acetamidobenzylidene)-6-(2-fluorobenzylidene)-2,5-piperazinedione] |  |  |  |  |  | Inhibition of PAI-1 in the first S2251 chromogenic substrate assay (Concentration 3.75 μm): 1%; Inhibition of PAI-1 in the first S2251 chromogenic substrate assay (Concentration 7.5 μm): 1%; Inhibition of PAI-1 in the first S2251 chromogenic substrate assay (Concentration 15 μm): 51%; Inhibition of PAI-1 in the first S2251 chromogenic substrate assay (Concentration 30 μm): 64%; Inhibition of PAI-1 in the first S2251 chromogenic substrate assay (Concentration 60 μm): 52%
8 | COc1ccc(/C=c2\[nH]c(=O)/c(=C/c3ccc(NC(C)=O)cc3)[nH]c2=O)cc1 [Compound 26, (3Z,6Z)-3-(4-Acetamidobenzylidene)-6-(4-methoxybenzylidene)-2,5-piperazinedione] |  |  |  |  |  | Inhibition of PAI-1 in the first S2251 chromogenic substrate assay (Concentration 7.5 μm): 42%; Inhibition of PAI-1 in the first S2251 chromogenic substrate assay (Concentration 15 μm): 73%; Inhibition of PAI-1 in the first S2251 chromogenic substrate assay (Concentration 30 μm): 71%; Inhibition of PAI-1 in the first S2251 chromogenic substrate assay (Concentration 60 μm): 57%
9 | COc1ccc(/C=c2\[nH]c(=O)/c(=C/c3ccc(S(C)(=O)=O)cc3)[nH]c2=O)cc1 [Compound 46, (3Z,6Z)-3-(4-Methoxybenzylidene)-6-(4-methylsulfonylbenzylidene)-2,5-piperazinedione] | 14 | 38 | 42 | 39 |  | 
10 | O=c1[nH]/c(=C\c2cccc(CS)c2)c(=O)[nH]/c1=C\c1ccccc1 [Compound 64, (3Z,6Z)-6-Benzylidene-3-(3-mercaptomethylbenzylidene)-2,5-piperazinedione] |  |  |  |  |  | Inhibition of PAI-1 in the first S2251 chromogenic substrate assay (Concentration 7.5 μm): 17%; Inhibition of PAI-1 in the first S2251 chromogenic substrate assay (Concentration 15 μm): 63%; Inhibition of PAI-1 in the first S2251 chromogenic substrate assay (Concentration 30 μm): 87%; Inhibition of PAI-1 in the first S2251 chromogenic substrate assay (Concentration 60 μm): 100%
11 | CC(=O)Nc1ccc(/C=c2\[nH]c(=O)/c(=C/c3ccc(Cl)cc3)[nH]c2=O)cc1 [Compound 42, (3Z,6Z)-3-(4-Acetamidobenzylidene)-6-(4-chlorobenzylidene)-2,5-piperazinedione] |  |  |  |  |  | Inhibition of PAI-1 in the first S2251 chromogenic substrate assay (Concentration 3.75 μm): 1%; Inhibition of PAI-1 in the first S2251 chromogenic substrate assay (Concentration 7.5 μm): 4%; Inhibition of PAI-1 in the first S2251 chromogenic substrate assay (Concentration 15 μm): 59%; Inhibition of PAI-1 in the first S2251 chromogenic substrate assay (Concentration 30 μm): 57%; Inhibition of PAI-1 in the first S2251 chromogenic substrate assay (Concentration 60 μm): 58%
12 | CC(=O)Oc1ccc(/C=c2\[nH]c(=O)/c(=C/c3ccccc3)[nH]c2=O)cc1 [Compound 23, (3Z,6Z)-3-(4-Acetoxybenzylidene)-6-benzylidene-2,5-piperazinedione] |  |  |  |  |  | Inhibition of PAI-1 in the first S2251 chromogenic substrate assay (Concentration 7.5 μm): 0%; Inhibition of PAI-1 in the first S2251 chromogenic substrate assay (Concentration 15 μm): 0%; Inhibition of PAI-1 in the first S2251 chromogenic substrate assay (Concentration 30 μm): 17%; Inhibition of PAI-1 in the first S2251 chromogenic substrate assay (Concentration 60 μm): 65%
13 | CC(=O)Nc1ccc(/C=c2\[nH]c(=O)/c(=C/c3ccc(F)cc3F)[nH]c2=O)cc1 [Compound 77] | 61 | 80 | 66 | 33 | 1 | 
14 | COc1ccc(/C=c2\[nH]c(=O)/c(=C/c3ccc(CNC(=O)OC(C)(C)C)cc3)[nH]c2=O)cc1 [Compound 56, (3Z,6Z)-(4-Methoxybenzylidene)-6-(4-tert-butoxycarbonylaminomethylbenzylidene)-2,5-piperazinedione] | 2 | 15 | 60 | 82 |  | 

Now from value to compound, other results behind:

Row | Inhibition of PAI-1 in the first S2251 chromogenic substrate assay (Concentration 12.5 μm) [%] | Inhibition of PAI-1 in the first S2251 chromogenic substrate assay (Concentration 25 μm) [%] | Inhibition of PAI-1 in the first S2251 chromogenic substrate assay (Concentration 50 μm) [%] | Inhibition of PAI-1 in the first S2251 chromogenic substrate assay (Concentration 100 μm) [%] | Inhibition of PAI-1 in the first S2251 chromogenic substrate assay (Concentration 6.25 μm) [%] | SMILES | further results
15 | 2 | 5 | 23 | 66 |  | Nc1ccc(/C=c2\[nH]c(=O)/c(=C/c3ccccc3)[nH]c2=O)cc1 [Compound 30, (3Z,6Z)-3-(4-Aminobenzylidene)-6-benzylidene-2,5-piperazinedione] | 
16 | 16 | 45 | 71 | 69 | 10 | CCOC(=O)CCCCC(=O)NCc1ccc(/C=c2\[nH]c(=O)/c(=C/c3ccccc3)[nH]c2=O)cc1 [Compound 95] | 
17 | 1 | 1 | 3 | 64 | 1 | CC(=O)Nc1ccccc1/C=c1\[nH]c(=O)/c(=C/c2ccccc2)[nH]c1=O [Compound 38, (3Z,6Z)-3-(2-Acetamidobenzylidene)-6-benzylidene-2,5-piperazinedione] | 
18 | 0 | 3 | 72 | 50 | 0 | COc1ccc(/C=c2\[nH]c(=O)/c(=C/c3ccc(OC)c(OC)c3)[nH]c2=O)cc1 [Compound 91, (3Z,6Z)-3-(3,4-Dimethoxybenzylidene)-6-(4-methoxybenzylidene)-2,5-piperazinedione] | 
19 | 5 | 38 | 61 | 79 |  | CC(C)(C)c1ccc(/C=c2\[nH]c(=O)/c(=C/c3ccccc3)[nH]c2=O)cc1 [Compound 51, (3Z,6Z)-6-Benzylidene-3-(4-tert-butylbenzylidene)-2,5-piperazinedione] | 
20 | 1 | 1 | 2 | 51 | 1 | CC(=O)NCc1ccc(/C=c2\[nH]c(=O)/c(=C/c3ccccc3)[nH]c2=O)cc1 [Compound 44, (3Z,6Z)-3-(4-Acetamidomethylbenzylidene)-6-benzylidene-2,5-piperazinedione] | 
21 | 1 | 25 | 52 | 62 |  | COc1ccc(/C=c2\[nH]c(=O)/c(=C/c3ccc(CS(C)(=O)=O)cc3)[nH]c2=O)cc1 [Compound 60, (3Z,6Z)-3-(4-Methoxybenzylidene)-6-(4-methylsulfonylmethylbenzylidene)-2,5-piperazinedione] | 
22 | 2 | 38 | 72 | 82 |  | COc1ccc(/C=c2\[nH]c(=O)/c(=C/c3ccc(CSC)cc3)[nH]c2=O)cc1 [Compound 57, (3Z,6Z)-3-(4-Methoxybenzylidene)-6-(4-methylthiomethylbenzylidene)-2,5-piperazinedione] | 
